The values that follow are results of earlier work, collected in patent US20060111442A1, “Use of methyl pyruvate to increase cellular energy production downstream of glycolysis for the PARP-1 ablation of HIV without necrotic cell death caused by continuous, chronic PARP-1 activation through the concomitant depletion of ATP and NAD” (priority 2004, published 2006).

Structures are written as SMILES. Read-outs that look alike come from different tables or passages of the source.

Data set [1] has as its system isolated beta-cell mitochondria. To be noted: with glutamate, vs pyruvate/glutamate.
The target of another data set is T1, K(ATP) channels (Homo sapiens, UniProt Q09428+Q14654).
T1 construct: endogenous in cells; host or cells: pancreatic beta-cells
T1 sequence (Q14654 whole entry): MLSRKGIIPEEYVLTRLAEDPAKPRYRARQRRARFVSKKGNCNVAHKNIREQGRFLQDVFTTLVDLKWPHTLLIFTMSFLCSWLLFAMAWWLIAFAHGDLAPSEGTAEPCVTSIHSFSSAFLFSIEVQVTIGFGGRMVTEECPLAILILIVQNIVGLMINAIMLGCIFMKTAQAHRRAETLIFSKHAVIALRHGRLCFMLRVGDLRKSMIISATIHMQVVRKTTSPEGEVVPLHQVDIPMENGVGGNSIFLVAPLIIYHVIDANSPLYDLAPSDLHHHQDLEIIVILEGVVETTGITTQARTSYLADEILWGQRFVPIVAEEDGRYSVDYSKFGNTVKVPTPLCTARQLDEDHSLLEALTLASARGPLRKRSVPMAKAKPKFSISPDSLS
T1 sequence (Q09428 whole entry): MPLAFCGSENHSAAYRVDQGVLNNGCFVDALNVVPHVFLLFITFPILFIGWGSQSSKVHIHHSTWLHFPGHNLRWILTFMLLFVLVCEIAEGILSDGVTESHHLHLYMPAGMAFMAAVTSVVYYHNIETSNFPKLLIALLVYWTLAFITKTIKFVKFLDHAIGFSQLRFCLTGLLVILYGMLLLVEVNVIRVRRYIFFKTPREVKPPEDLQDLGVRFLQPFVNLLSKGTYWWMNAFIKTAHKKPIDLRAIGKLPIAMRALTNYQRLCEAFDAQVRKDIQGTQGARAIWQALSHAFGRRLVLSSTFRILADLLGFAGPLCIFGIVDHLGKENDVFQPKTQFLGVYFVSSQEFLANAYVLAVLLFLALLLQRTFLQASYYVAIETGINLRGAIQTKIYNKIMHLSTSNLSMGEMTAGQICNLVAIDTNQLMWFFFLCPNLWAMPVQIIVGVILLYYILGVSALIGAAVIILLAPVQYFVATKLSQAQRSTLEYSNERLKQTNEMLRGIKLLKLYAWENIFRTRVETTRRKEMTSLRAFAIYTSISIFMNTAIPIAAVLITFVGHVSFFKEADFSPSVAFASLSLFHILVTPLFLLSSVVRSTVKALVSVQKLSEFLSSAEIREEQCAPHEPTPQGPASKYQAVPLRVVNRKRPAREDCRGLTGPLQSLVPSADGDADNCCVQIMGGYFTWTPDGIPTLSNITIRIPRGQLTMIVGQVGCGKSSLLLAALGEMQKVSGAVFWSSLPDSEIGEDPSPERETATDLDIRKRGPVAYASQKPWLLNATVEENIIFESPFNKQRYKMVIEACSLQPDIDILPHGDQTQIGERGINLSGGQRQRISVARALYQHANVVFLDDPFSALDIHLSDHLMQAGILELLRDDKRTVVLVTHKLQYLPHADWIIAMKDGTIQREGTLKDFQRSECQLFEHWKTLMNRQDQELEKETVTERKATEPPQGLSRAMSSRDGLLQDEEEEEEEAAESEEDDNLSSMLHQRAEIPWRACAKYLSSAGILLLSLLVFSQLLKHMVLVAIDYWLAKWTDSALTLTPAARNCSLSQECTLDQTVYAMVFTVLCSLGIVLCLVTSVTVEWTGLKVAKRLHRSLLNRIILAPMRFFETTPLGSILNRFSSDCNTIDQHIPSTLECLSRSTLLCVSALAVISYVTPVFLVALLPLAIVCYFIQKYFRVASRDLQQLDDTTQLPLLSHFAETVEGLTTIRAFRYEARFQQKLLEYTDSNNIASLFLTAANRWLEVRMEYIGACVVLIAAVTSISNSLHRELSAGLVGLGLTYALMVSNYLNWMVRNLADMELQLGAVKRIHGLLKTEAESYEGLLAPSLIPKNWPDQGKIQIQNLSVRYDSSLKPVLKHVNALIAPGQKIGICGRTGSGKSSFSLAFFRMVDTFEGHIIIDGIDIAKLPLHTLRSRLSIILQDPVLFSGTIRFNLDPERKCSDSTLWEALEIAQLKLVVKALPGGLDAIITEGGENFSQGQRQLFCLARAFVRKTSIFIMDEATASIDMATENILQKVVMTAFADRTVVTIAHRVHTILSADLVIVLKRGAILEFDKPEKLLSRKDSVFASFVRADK
To be noted: standard whole-cell configuration.

Data set [2] concerns Jurkat T-lymphocyte mitochondria.
For data set [3], the system named is isolated rat pancreatic islets.
Data set [4] deals with hepatic stellate cells (HSC). The note with it: 10 microm 15dPGJ(2); 0.1 approximately 10 microm BRL49653; WY14643 >100 microm, not <10 microm.
Data set [5] concerns PDK4. The note with it: control and high-fat-fed rats.
In data set [6] the test system is PDK4. The note with it: feeding.
For data set [7], the system named is guinea-pig cerebral cortical synaptosomes.
The next data set has as its system mGPDH-deficient islets. The note with it: both NADH shuttles halted.
For data set [8] the following is noted: 1 mmol.kg-1.d-1, 7 d; P<0.01.
The test system of a further data set is Na(+)-K(+)-ATPase. The note with it: 10 microM.

Turning to `COC(=O)C(C)=O` [methyl pyruvate], in the data set with pancreatic beta-cells, the “NAD(P)H autofluorescence, ATP production, ATP/ADP ratio” value is “slightly decreased NAD(P)H autofluorescence and did not influence ATP production or the ATP/ADP ratio”; the “cytosolic free Ca(2+) concentration” value is “increased the cytosolic free Ca(2+) concentration after an initial decrease”; the “increase in insulin secretion relative to that induced by glucose” value is 6 fold. In the data set with pancreatic beta-cells (0.5 mM glucose), the electrical activity result was “elicited electrical activity”. In the data set on pancreatic beta-cells (5-20 mM), the beta-cell membrane depolarization entry is on record as “depolarized the beta-cell in a concentration-dependent manner”. The “concentration of maximal effect on insulin secretion” value in the data set with pancreatic beta-cells (absence of glucose) is reported as 5 mM. The insulin secretion entry in the data set with pancreatic beta-cells (absence of glucose, pyruvate 5-20 mM) is recorded as “stimulated insulin secretion”. Also, the “insulin secretion and KATP block” value with pancreatic beta-cells (islets) is “block of KATP”. Further, in the data set on pancreatic beta-cells (pyruvate 5 mM, MP 5 mM, glucose 20 mM), the “ATP/ADP ratio in whole islets” value is given as “no effect”. Moreover, the ATP production entry in data set [1] is on record as “higher”. For the same compound, the “K(ATP) current” value at K(ATP) channels was “inhibited the K(ATP) current”. In addition, the “cation current across the inner membrane” value in data set [2] is recorded as “directly inhibited”. Besides, in data set [3], the mitochondrial alkalinization result is on record as “more marked mitochondrial alkalinization than pyruvate” and the “mitochondrial metabolism compared with pyruvate” value is reported as “more efficient than pyruvate”. Also, in data set [3] (D-glucose 16.7 mM and/or ester 20.0 mM), the insulin release result is given as “negative insulinotropic action”. Besides, in data set [3] (D-glucose 2.8 to 8.3 mM, ester not exceeding 1 0.0 mM), the insulin release entry is recorded as “positive insulinotropic action”. Also, the “NADH and NADPH response” value with pancreatic islets was “stimulated a robust NADH and NADPH response”.
On to `Cc1cccc(Nc2cc(Cl)nc(SCC(=O)O)n2)c1C` [WY14643], for which, in data set [4], the “HSC DNA and collagen synthesis” value was “inhibited”. In the data set with PDK4 [5], the “hepatic PDK4 protein” value was “significantly increased PDK4 protein”. The “pyruvate dehydrogenase kinase activity, PDK4 protein, PDK4 mRNA in gastrocnemius muscle” value with PDK4 [6] was “induced large increases”.
Regarding `NOCC(=O)O` [amino-oxyacetic acid], the “negative shift in the cytosolic NAD+/NADH redox potential” value in [7] is listed as 26 mV. In addition, the glucose-induced insulin secretion entry with mGPDH-deficient islets is reported as “almost completely abrogated”.
Turning to `CCO[C@@H](Cc1ccc(OCCc2ccc(OS(C)(=O)=O)cc2)cc1)C(=O)O` [tesaglitazar], in data set [8], the “insulin sensitivity (glucose infusion rate during hyperinsulinemic-euglycemic clamp)” value is on record as “improved the insulin sensitivity”.
Take `C[C@@H]1O[C@@H](O[C@H]2C[C@@H](O)[C@]3(CO)[C@H]4[C@H](O)C[C@]5(C)[C@@H](C6=CC(=O)OC6)CC[C@]5(O)[C@@H]4CC[C@]3(O)C2)[C@H](O)[C@H](O)[C@H]1O` [ouabain]: the “glycolysis and lactate production” value in the data set with Na(+)-K(+)-ATPase was “decreased glycolysis and lactate production”.
On to `CCCCCCCC(=O)O` [octanoate], for which the “adverse energetic effects of malate-aspartate shuttle inhibition” value with porcine carotid arteries is recorded as “normalized”.
